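Results reflect a 48-hour exposure of cells in 96-well plates to compound at five concentrations. TGI: total growth inhibition.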
Legend:
Experiment in all cases: growth of human tumour cells (NCI), 48 h
K-562 leukemia = system: K-562 leukemia
PC-3 prostate = system: PC-3 prostate
OVCAR-8 ovarian = system: OVCAR-8 ovarian
HOP-92 NSCLC = system: HOP-92 NSCLC
HCT-15 colon = system: HCT-15 colon
RXF 393 renal = system: RXF 393 renal
A498 renal = system: A498 renal
MDA-N = system: MDA-N
T-47D breast = system: T-47D breast
OVCAR-5 ovarian = system: OVCAR-5 ovarian
SW-620 colon = system: SW-620 colon
OVCAR-3 ovarian = system: OVCAR-3 ovarian
SF-539 CNS = system: SF-539 CNS
LOX IMVI melanoma = system: LOX IMVI melanoma
UACC-62 melanoma = system: UACC-62 melanoma
NCI/ADR-RES ovarian = system: NCI/ADR-RES ovarian
NCI-H23 lung = system: NCI-H23 lung
SF-268 CNS = system: SF-268 CNS
SK-MEL-28 melanoma = system: SK-MEL-28 melanoma
BT-549 breast = system: BT-549 breast
NCI-H460 lung = system: NCI-H460 lung
HL-60(TB) leukemia = system: HL-60(TB) leukemia
CAKI-1 renal = system: CAKI-1 renal
SF-295 CNS = system: SF-295 CNS
IGROV1 ovarian = system: IGROV1 ovarian
UACC-257 melanoma = system: UACC-257 melanoma
NCI-H522 lung = system: NCI-H522 lung
OVCAR-4 ovarian = system: OVCAR-4 ovarian
DU-145 prostate = system: DU-145 prostate
MOLT-4 leukemia = system: MOLT-4 leukemia
A549 NSCLC = system: A549 NSCLC
SN12C renal = system: SN12C renal
SK-MEL-2 melanoma = system: SK-MEL-2 melanoma
CCRF-CEM leukemia = system: CCRF-CEM leukemia
KM12 colon = system: KM12 colon
MCF7 breast = system: MCF7 breast
786-0 renal = system: 786-0 renal
HS 578T breast = system: HS 578T breast
ACHN renal = system: ACHN renal
U251 CNS = system: U251 CNS
HCT-116 colon = system: HCT-116 colon
SK-MEL-5 melanoma = system: SK-MEL-5 melanoma
UO-31 renal = system: UO-31 renal
NCI-H226 lung = system: NCI-H226 lung
M14 melanoma = system: M14 melanoma
RPMI-8226 leukemia = system: RPMI-8226 leukemia
SNB-19 CNS = system: SNB-19 CNS
MDA-MB-435 = system: MDA-MB-435
HCC-2998 colon = system: HCC-2998 colon
EKVX NSCLC = system: EKVX NSCLC
SR leukemia = system: SR leukemia
MDA-MB-231 breast = system: MDA-MB-231 breast
COLO 205 colon = system: COLO 205 colon
HT29 colon = system: HT29 colon
TK-10 renal = system: TK-10 renal
HOP-62 NSCLC = system: HOP-62 NSCLC
MALME-3M melanoma = system: MALME-3M melanoma
SK-OV-3 ovarian = system: SK-OV-3 ovarian
SNB-75 CNS = system: SNB-75 CNS

SMILES: CC(=O)Nc1cc2cc(NS(=O)(=O)c3ccc(Cl)c(Cl)c3)ccc2oc1=O
- TGI (K-562 leukemia): > 100 µM
- TGI (PC-3 prostate): 51.1 µM
- TGI (OVCAR-8 ovarian): 31.6 µM
- TGI (HOP-92 NSCLC): 60.5 µM
- TGI (HCT-15 colon): > 100 µM
- TGI (RXF 393 renal): 25.6 µM
- TGI (A498 renal): 40.7 µM
- TGI (MDA-N): > 100 µM
- TGI (T-47D breast): 43.5 µM
- TGI (OVCAR-5 ovarian): > 100 µM
- TGI (SW-620 colon): > 100 µM
- TGI (OVCAR-3 ovarian): > 100 µM
- TGI (SF-539 CNS): 56.1 µM
- TGI (LOX IMVI melanoma): 44.3 µM
- TGI (UACC-62 melanoma): 62.8 µM
- TGI (NCI/ADR-RES ovarian): > 100 µM
- TGI (NCI-H23 lung): > 100 µM
- TGI (SF-268 CNS): 61.7 µM
- TGI (SK-MEL-28 melanoma): > 100 µM
- TGI (BT-549 breast): > 100 µM
- TGI (NCI-H460 lung): > 100 µM
- TGI (HL-60(TB) leukemia): > 100 µM
- TGI (CAKI-1 renal): 56.4 µM
- TGI (SF-295 CNS): 44.5 µM
- TGI (IGROV1 ovarian): > 100 µM
- TGI (UACC-257 melanoma): > 100 µM
- TGI (NCI-H522 lung): 63.6 µM
- TGI (OVCAR-4 ovarian): > 100 µM
- TGI (DU-145 prostate): > 100 µM
- TGI (MOLT-4 leukemia): > 100 µM
- TGI (A549 NSCLC): > 100 µM
- TGI (SN12C renal): 64.8 µM
- TGI (SK-MEL-2 melanoma): > 100 µM
- TGI (CCRF-CEM leukemia): > 100 µM
- TGI (KM12 colon): 92.3 µM
- TGI (MCF7 breast): 47.7 µM
- TGI (786-0 renal): 32.4 µM
- TGI (HS 578T breast): 59.7 µM
- TGI (ACHN renal): > 100 µM
- TGI (U251 CNS): 45.5 µM
- TGI (HCT-116 colon): 82.2 µM
- TGI (SK-MEL-5 melanoma): 58.6 µM
- TGI (UO-31 renal): > 100 µM
- TGI (NCI-H226 lung): > 100 µM
- TGI (M14 melanoma): > 100 µM
- TGI (RPMI-8226 leukemia): > 100 µM
- TGI (SNB-19 CNS): > 100 µM
- TGI (MDA-MB-435): > 100 µM
- TGI (HCC-2998 colon): > 100 µM
- TGI (EKVX NSCLC): > 100 µM
- TGI (SR leukemia): > 100 µM
- TGI (MDA-MB-231 breast): 46.2 µM
- TGI (COLO 205 colon): 93.7 µM
- TGI (HT29 colon): > 100 µM
- TGI (TK-10 renal): > 100 µM
- TGI (HOP-62 NSCLC): 46.7 µM

SMILES: CCc1c(CNC2=NCCN2)c(CC)c(CNC2=NCCN2)c(CC)c1CNC1=NCCN1
- TGI (K-562 leukemia): > 100 µM
- TGI (PC-3 prostate): > 100 µM
- TGI (OVCAR-8 ovarian): > 100 µM
- TGI (HOP-92 NSCLC): > 100 µM
- TGI (HCT-15 colon): > 100 µM
- TGI (RXF 393 renal): > 100 µM
- TGI (A498 renal): > 100 µM
- TGI (MDA-N): > 100 µM
- TGI (MALME-3M melanoma): > 100 µM
- TGI (T-47D breast): > 100 µM
- TGI (SK-OV-3 ovarian): > 100 µM
- TGI (OVCAR-5 ovarian): > 100 µM
- TGI (SW-620 colon): > 100 µM
- TGI (OVCAR-3 ovarian): > 100 µM
- TGI (SF-539 CNS): > 100 µM
- TGI (UACC-62 melanoma): > 100 µM
- TGI (NCI/ADR-RES ovarian): > 100 µM
- TGI (NCI-H23 lung): > 100 µM
- TGI (SF-268 CNS): > 100 µM
- TGI (SK-MEL-28 melanoma): > 100 µM
- TGI (BT-549 breast): > 100 µM
- TGI (NCI-H460 lung): > 100 µM
- TGI (CAKI-1 renal): > 100 µM
- TGI (SF-295 CNS): > 100 µM
- TGI (IGROV1 ovarian): > 100 µM
- TGI (UACC-257 melanoma): > 100 µM
- TGI (NCI-H522 lung): > 100 µM
- TGI (OVCAR-4 ovarian): > 100 µM
- TGI (DU-145 prostate): > 100 µM
- TGI (MOLT-4 leukemia): > 100 µM
- TGI (A549 NSCLC): > 100 µM
- TGI (SN12C renal): > 100 µM
- TGI (SK-MEL-2 melanoma): > 100 µM
- TGI (CCRF-CEM leukemia): > 100 µM
- TGI (KM12 colon): > 100 µM
- TGI (MCF7 breast): > 100 µM
- TGI (786-0 renal): > 100 µM
- TGI (HS 578T breast): > 100 µM
- TGI (ACHN renal): > 100 µM
- TGI (U251 CNS): > 100 µM
- TGI (HCT-116 colon): > 100 µM
- TGI (SK-MEL-5 melanoma): > 100 µM
- TGI (UO-31 renal): > 100 µM
- TGI (NCI-H226 lung): > 100 µM
- TGI (M14 melanoma): > 100 µM
- TGI (RPMI-8226 leukemia): > 100 µM
- TGI (SNB-19 CNS): > 100 µM
- TGI (MDA-MB-435): > 100 µM
- TGI (HCC-2998 colon): > 100 µM
- TGI (EKVX NSCLC): > 100 µM
- TGI (SNB-75 CNS): > 100 µM
- TGI (SR leukemia): > 100 µM
- TGI (COLO 205 colon): > 100 µM
- TGI (HT29 colon): > 100 µM
- TGI (TK-10 renal): > 100 µM
- TGI (HOP-62 NSCLC): > 100 µM

From PubChem BioAssay (NCI)
